Source: PubChem BioAssay (NCI)
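The compound was tested at five concentrations on cells cultured in 96-well plates, with a 48-hour exposure period. GI50: concentration for 50% inhibition of growth. TGI denotes the concentration required for complete inhibition of growth.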

How the values were obtained:
Experiment in all cases: NCI anticancer screen, dose series, 48 h
RPMI-8226 leukemia = test system: RPMI-8226 leukemia
UO-31 renal = test system: UO-31 renal
KM12 colon = test system: KM12 colon
SN12C renal = test system: SN12C renal
BT-549 breast = test system: BT-549 breast
SK-OV-3 ovarian = test system: SK-OV-3 ovarian
DU-145 prostate = test system: DU-145 prostate
UACC-62 melanoma = test system: UACC-62 melanoma
K-562 leukemia = test system: K-562 leukemia
M14 melanoma = test system: M14 melanoma
SF-268 CNS = test system: SF-268 CNS
SK-MEL-2 melanoma = test system: SK-MEL-2 melanoma
IGROV1 ovarian = test system: IGROV1 ovarian
EKVX NSCLC = test system: EKVX NSCLC
786-0 renal = test system: 786-0 renal
SF-539 CNS = test system: SF-539 CNS
CCRF-CEM leukemia = test system: CCRF-CEM leukemia
COLO 205 colon = test system: COLO 205 colon
LOX IMVI melanoma = test system: LOX IMVI melanoma
SK-MEL-28 melanoma = test system: SK-MEL-28 melanoma
A549 NSCLC = test system: A549 NSCLC
OVCAR-4 ovarian = test system: OVCAR-4 ovarian
MCF7 breast = test system: MCF7 breast
A498 renal = test system: A498 renal
NCI/ADR-RES ovarian = test system: NCI/ADR-RES ovarian
SR leukemia = test system: SR leukemia
CAKI-1 renal = test system: CAKI-1 renal
MALME-3M melanoma = test system: MALME-3M melanoma
SNB-19 CNS = test system: SNB-19 CNS
OVCAR-5 ovarian = test system: OVCAR-5 ovarian
ACHN renal = test system: ACHN renal
MOLT-4 leukemia = test system: MOLT-4 leukemia
NCI-H23 lung = test system: NCI-H23 lung
HCT-15 colon = test system: HCT-15 colon
RXF 393 renal = test system: RXF 393 renal
OVCAR-3 ovarian = test system: OVCAR-3 ovarian
U251 CNS = test system: U251 CNS
HCC-2998 colon = test system: HCC-2998 colon
HT29 colon = test system: HT29 colon
HOP-92 NSCLC = test system: HOP-92 NSCLC
SK-MEL-5 melanoma = test system: SK-MEL-5 melanoma
SNB-75 CNS = test system: SNB-75 CNS
PC-3 prostate = test system: PC-3 prostate
NCI-H226 lung = test system: NCI-H226 lung
T-47D breast = test system: T-47D breast
MDA-MB-231 breast = test system: MDA-MB-231 breast
HCT-116 colon = test system: HCT-116 colon
HS 578T breast = test system: HS 578T breast
SF-295 CNS = test system: SF-295 CNS
NCI-H460 lung = test system: NCI-H460 lung
HOP-62 NSCLC = test system: HOP-62 NSCLC
UACC-257 melanoma = test system: UACC-257 melanoma
HL-60(TB) leukemia = test system: HL-60(TB) leukemia
SW-620 colon = test system: SW-620 colon
OVCAR-8 ovarian = test system: OVCAR-8 ovarian
NCI-H522 lung = test system: NCI-H522 lung
MDA-MB-435 = test system: MDA-MB-435
TK-10 renal = test system: TK-10 renal

O=C(c1ccc2ccccc2c1)c1c(C(F)(F)F)n([O-])c2ccc(C(F)(F)F)cc2[n+]1=O
GI50 (RPMI-8226 leukemia): 864 nM
TGI (RPMI-8226 leukemia): 2880 nM
GI50 (UO-31 renal): 434 nM
TGI (UO-31 renal): 874 nM
GI50 (KM12 colon): 961 nM
TGI (KM12 colon): 2390 nM
GI50 (SN12C renal): 1390 nM
TGI (SN12C renal): 3300 nM
GI50 (BT-549 breast): 278 nM
TGI (BT-549 breast): 751 nM
GI50 (SK-OV-3 ovarian): 1790 nM
TGI (SK-OV-3 ovarian): 3200 nM
GI50 (DU-145 prostate): 738 nM
TGI (DU-145 prostate): 2000 nM
GI50 (UACC-62 melanoma): 1720 nM
TGI (UACC-62 melanoma): 3210 nM
GI50 (K-562 leukemia): 608 nM
TGI (K-562 leukemia): 1140 nM
GI50 (M14 melanoma): 1540 nM
TGI (M14 melanoma): 2950 nM
GI50 (SF-268 CNS): 783 nM
TGI (SF-268 CNS): 2370 nM
GI50 (SK-MEL-2 melanoma): 1960 nM
TGI (SK-MEL-2 melanoma): 3770 nM
GI50 (IGROV1 ovarian): 270 nM
TGI (IGROV1 ovarian): 815 nM
GI50 (EKVX NSCLC): 1540 nM
TGI (EKVX NSCLC): 3200 nM
GI50 (786-0 renal): 1290 nM
TGI (786-0 renal): 2680 nM
GI50 (SF-539 CNS): 1560 nM
TGI (SF-539 CNS): 2970 nM
GI50 (CCRF-CEM leukemia): 181 nM
TGI (CCRF-CEM leukemia): 547 nM
GI50 (COLO 205 colon): 724 nM
TGI (COLO 205 colon): 1830 nM
GI50 (LOX IMVI melanoma): 191 nM
TGI (LOX IMVI melanoma): 363 nM
GI50 (SK-MEL-28 melanoma): 1480 nM
TGI (SK-MEL-28 melanoma): 2860 nM
GI50 (A549 NSCLC): 1680 nM
TGI (A549 NSCLC): 3480 nM
GI50 (OVCAR-4 ovarian): 249 nM
TGI (OVCAR-4 ovarian): 607 nM
GI50 (MCF7 breast): 392 nM
TGI (MCF7 breast): 1560 nM
GI50 (A498 renal): 757 nM
TGI (A498 renal): 1970 nM
GI50 (NCI/ADR-RES ovarian): 1700 nM
TGI (NCI/ADR-RES ovarian): 4750 nM
GI50 (SR leukemia): 174 nM
TGI (SR leukemia): 478 nM
GI50 (CAKI-1 renal): 280 nM
TGI (CAKI-1 renal): 730 nM
GI50 (MALME-3M melanoma): 1200 nM
TGI (MALME-3M melanoma): 2710 nM
GI50 (SNB-19 CNS): 1760 nM
TGI (SNB-19 CNS): 3200 nM
GI50 (OVCAR-5 ovarian): 992 nM
TGI (OVCAR-5 ovarian): 4200 nM
GI50 (ACHN renal): 566 nM
TGI (ACHN renal): 1710 nM
GI50 (MOLT-4 leukemia): 441 nM
TGI (MOLT-4 leukemia): 1620 nM
GI50 (NCI-H23 lung): 3400 nM
TGI (NCI-H23 lung): 10200 nM
GI50 (HCT-15 colon): 732 nM
TGI (HCT-15 colon): 2070 nM
GI50 (RXF 393 renal): 974 nM
TGI (RXF 393 renal): 2540 nM
GI50 (OVCAR-3 ovarian): 884 nM
TGI (OVCAR-3 ovarian): 2260 nM
GI50 (U251 CNS): 302 nM
TGI (U251 CNS): 742 nM
GI50 (HCC-2998 colon): 1690 nM
TGI (HCC-2998 colon): 3270 nM
GI50 (HT29 colon): 439 nM
TGI (HT29 colon): 1430 nM
GI50 (HOP-92 NSCLC): 899 nM
TGI (HOP-92 NSCLC): 2280 nM
GI50 (SK-MEL-5 melanoma): 927 nM
TGI (SK-MEL-5 melanoma): 2370 nM
GI50 (SNB-75 CNS): 640 nM
TGI (SNB-75 CNS): 1480 nM
GI50 (PC-3 prostate): 407 nM
TGI (PC-3 prostate): 1420 nM
GI50 (NCI-H226 lung): 1060 nM
TGI (NCI-H226 lung): 3350 nM
GI50 (T-47D breast): 755 nM
TGI (T-47D breast): 2310 nM
GI50 (MDA-MB-231 breast): 1480 nM
TGI (MDA-MB-231 breast): 2950 nM
GI50 (HCT-116 colon): 498 nM
TGI (HCT-116 colon): 1160 nM
GI50 (HS 578T breast): 1440 nM
TGI (HS 578T breast): 3970 nM
GI50 (SF-295 CNS): 1290 nM
TGI (SF-295 CNS): 2740 nM
GI50 (NCI-H460 lung): 1800 nM
TGI (NCI-H460 lung): 3690 nM
GI50 (HOP-62 NSCLC): 1950 nM
TGI (HOP-62 NSCLC): 3580 nM
GI50 (UACC-257 melanoma): 1520 nM
TGI (UACC-257 melanoma): 3120 nM
GI50 (HL-60(TB) leukemia): 639 nM
TGI (HL-60(TB) leukemia): 2200 nM
GI50 (SW-620 colon): 514 nM
TGI (SW-620 colon): 1110 nM
GI50 (OVCAR-8 ovarian): 727 nM
TGI (OVCAR-8 ovarian): 2450 nM
GI50 (NCI-H522 lung): 505 nM
TGI (NCI-H522 lung): 1090 nM
GI50 (MDA-MB-435): 1750 nM
TGI (MDA-MB-435): 3350 nM
GI50 (TK-10 renal): 1670 nM
TGI (TK-10 renal): 3070 nM
